How the values were obtained:
Type in all cases: cell-based
EGFR (Del19/T790M/C797S) [1] = assay: Cell degradation HTRF assay, BaF3-DTC cells; conditions: 16 h treatment; for DC50: HTRF; for DTC Dmax (%): maximum percentage of degradation
Method: (§1) Cell Degradation of Example 1-28
(§2) BaF3-LTC (L858R/T790M/C797S) and BaF3-DTC (Del19/T790M/C797S) cells are treated with compounds diluted in 0.2% DMSO cell culture medium and incubate for 16 h, 37° C., 5% CO2. The final concentration of compounds in all assay is start with 10 uM, 4-fold dilution, total 8 doses were included.
(§3) After 16 h treatment, add HTRF lysis buffer to each well; seal the plate and incubate 1 hour at room temperature on a plate shaker; Once the cells are lysed, 16 μL of cell lysate are transferred to a PE 384-well HTRF detection plate; 4 μL of pre-mixed HTRF antibodies are added to each well; Cover the plate with a plate sealer, spin 1000 rpm for 1 min, Incubate overnight at room temperature; Read on BMG PheraStar with HTRF protocol (337 nm-665 nm-620 nm). The inhibition (degradation) percentage of the compound was calculated by the following equation:
(§4) Inhibition percentage of Compound=100−100×(Signal−low control)/(High control−low control), wherein signal=each test compound group.
(§5) High control=Cell group with added DMSO and without compound, indicating microplate readings without EGFR degradation;
(§6) Dmax is the maximum percentage of inhibition (degradation).
(§7) The IC50 (DC50) value of a compound can be obtained by fitting the following equation
(§8) Y=Bottom+(TOP−Bottom)/(1+((C50/X)^hillslope))
(§9) Wherein, X and Y are known values, and IC50, Hillslope, Top and Bottom are the parameters obtained by fitting with software. Y is the inhibition percentage (calculated from the equation), X is the concentration of the compound; IC50 is the concentration of the compound when the 50% inhibition is reached. The smaller the IC50 value is, the stronger the inhibitory ability of the compound is. Vice versa, the higher the IC50 value is, the weaker the ability the inhibitory ability of the compound is; Hillslope represents the slope of the fitted curve, generally around 1*; Bottom represents the minimum value of the curve obtained by data fitting, which is generally 000±20%; Top represents the maximum value of the curve obtained by data fitting, which is generally 100%±20%. The experimental data were fitted by calculating and analyzing with Dotmatics data analysis software. When Dmax<50%, DC50 will be automatically assigned as larger than […].

EGFR (L858R/T790M/C797S) [2] = target: T1, EGFR (L858R/T790M/C797S) (Homo sapiens, UniProt P00533, C797S/L858R/T790M); assay: Cell degradation HTRF assay, BaF3-LTC cells; design: expressed in transfected cells; host or cells: BaF3-LTC; conditions: 16 h treatment; for DC50: HTRF; for Dmax: maximum percentage of degradation
T1 sequence (P00533 25-1210 T790M/C797S/L858R): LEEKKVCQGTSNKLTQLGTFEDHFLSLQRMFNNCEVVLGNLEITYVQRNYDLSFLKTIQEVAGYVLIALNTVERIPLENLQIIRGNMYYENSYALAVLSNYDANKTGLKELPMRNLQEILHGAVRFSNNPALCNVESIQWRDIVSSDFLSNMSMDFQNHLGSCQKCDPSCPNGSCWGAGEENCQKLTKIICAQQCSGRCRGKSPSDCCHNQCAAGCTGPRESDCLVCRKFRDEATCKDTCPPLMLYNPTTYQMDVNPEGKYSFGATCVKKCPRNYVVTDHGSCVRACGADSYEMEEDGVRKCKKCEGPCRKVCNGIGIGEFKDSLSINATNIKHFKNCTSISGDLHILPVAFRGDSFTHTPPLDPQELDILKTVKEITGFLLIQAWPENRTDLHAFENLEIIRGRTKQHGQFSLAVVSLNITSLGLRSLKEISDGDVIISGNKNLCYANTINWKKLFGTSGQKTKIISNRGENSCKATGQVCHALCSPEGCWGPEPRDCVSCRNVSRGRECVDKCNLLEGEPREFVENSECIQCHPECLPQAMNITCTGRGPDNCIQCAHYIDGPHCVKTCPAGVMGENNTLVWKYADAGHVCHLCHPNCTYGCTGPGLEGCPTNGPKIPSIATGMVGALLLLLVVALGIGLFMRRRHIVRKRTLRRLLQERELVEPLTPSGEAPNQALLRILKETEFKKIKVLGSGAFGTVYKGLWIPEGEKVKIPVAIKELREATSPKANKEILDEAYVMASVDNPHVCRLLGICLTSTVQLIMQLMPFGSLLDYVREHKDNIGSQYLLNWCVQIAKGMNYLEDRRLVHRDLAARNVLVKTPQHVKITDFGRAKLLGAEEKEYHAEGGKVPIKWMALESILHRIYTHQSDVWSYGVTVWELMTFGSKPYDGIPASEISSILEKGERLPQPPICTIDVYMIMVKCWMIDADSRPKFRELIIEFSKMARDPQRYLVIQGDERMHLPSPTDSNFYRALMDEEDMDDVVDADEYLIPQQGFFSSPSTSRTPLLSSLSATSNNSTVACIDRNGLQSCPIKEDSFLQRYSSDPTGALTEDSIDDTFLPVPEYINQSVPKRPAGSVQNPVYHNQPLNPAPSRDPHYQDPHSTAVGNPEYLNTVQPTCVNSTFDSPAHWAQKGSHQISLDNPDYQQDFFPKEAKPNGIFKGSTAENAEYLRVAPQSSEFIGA
Method: as §1, §2, §3, §4, §5, §6, §7, §8, §9

EGFR (L858R/T790M/C797S) [3] = target: T1, EGFR (L858R/T790M/C797S); assay: Cell degradation HTRF assay, H1975-clone #25 cells; conditions: H1975-clone #25 (L858R/T790M/C797S) cells, 16 h treatment
Method: Cell Degradation of Example 124-189
H1975-#28 and H1975-#25 cells are treated with compounds diluted in 0.2% DMSO cell culture medium on day 2, incubate for 16 h, 37° C., 5% CO2. the final concentration of compounds in all assay is start with 10 uM, 5-fold dilution, total 8 doses were included.
as §3, with “nm).” for “nm). The inhibition (degradation) percentage of the compound was calculated by the following equation:”
The inhibition (degradation) percentage of the compound was calculated by the following equation:
as §4, §5, §6, §7
Y=Bottom+(TOP−Bottom)/(1+((IC50/X)^hillslope))
as §9, with “0%±20%;” for “000±20%;”

EGFR (Del19/T790M/C797S) [4] = assay: Cell degradation HTRF assay, H1975-clone #28 cells; conditions: H1975-clone #28 (Del19/T790M/C797S) cells, 16 h treatment
Method in brief: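 H1975 clones #25 and #28 were treated 16 h at 37° C, 5% CO2 with 8 doses (top 10 uM, 5-fold dilution) in 0.2% DMSO medium. EGFR in lysates read by HTRF (665/620 nm); degradation % relative to DMSO high control; DC50 from 4-parameter fit, Dmax = maximal degradation.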

Structure (SMILES) | DC50 (EGFR (Del19/T790M/C797S) [1]) [nM] | DTC Dmax (%) (EGFR (Del19/T790M/C797S) [1]) | DC50 (EGFR (L858R/T790M/C797S) [2]) [nM] | Dmax (EGFR (L858R/T790M/C797S) [2]) [%] | DC50 (EGFR (L858R/T790M/C797S) [3]; HTRF, read-out: H1975-clone#25 LTC DC50) [nM] | Dmax (EGFR (L858R/T790M/C797S) [3]; maximum percentage of degradation, read-out: H1975-clone#25 LTC Dmax (%)) [%] | DC50 (EGFR (Del19/T790M/C797S) [4]; HTRF, read-out: H1975-clone#28 DTC DC50) [nM] | H1975-clone#28 DTC Dmax (%) (EGFR (Del19/T790M/C797S) [4]; maximum percentage of degradation)
CCc1cc(Nc2ncc(Br)c(Nc3cnc4ccccc4c3P(C)(C)=O)n2)c(OC)cc1N1CCC(N2CCN(C(=O)C3CCN(c4ccc5c(c4)C(C)(C)C(=O)N5C4CCC(=O)NC4=O)CC3)CC2)CC1 (stereo not shown) [Example 17, 3-(5-(4-(4-(1-(4-((5-bromo-4-((4-(dimethylphosphoryl)quinolin-3-yl)amino)pyrimidin-2-yl)amino)-2-ethyl-5-methoxyphenyl)piperidin-4-yl)piperazine-1-carbonyl)piperidin-1-yl)-3,3-dimethyl-2-oxoindolin-1-yl)piperidine-2,6-dione] | 1.94 | 96.58 | 3.86 | 92.5 |  |  |  | 
CCc1cc(Nc2ncc(Br)c(Nc3cnc4ccccc4c3P(C)(C)=O)n2)c(OC)cc1N1CCC(N2CCN(C(=O)[C@H]3C[C@H](N(C)c4cc(F)c(C5CCC(=O)NC5=O)c(F)c4)C3)CC2)CC1 (stereo partly shown) [Example 18, 3-(4-(((1r,3r)-3-(4-(1-(4-((5-bromo-4-((4-(dimethylphosphoryl)quinolin-3-yl)amino)pyrimidin-2-yl)amino)-2-ethyl-5-methoxyphenyl)piperidin-4-yl)piperazine-1-carbonyl)cyclobutyl)(methyl)amino)-2,6-difluorophenyl)piperidine-2,6-dione] | 3.95 | 97.59 | 14.6 | 90.7 |  |  |  | 
CCc1cc(Nc2ncc(Br)c(Nc3cnc4ccccc4c3P(C)(C)=O)n2)c(OC)cc1N1CCC(N2CCN(CC3CN(c4cc(F)c(C5CCC(=O)NC5=O)c(F)c4)C3)CC2)CC1 (stereo not shown) [Example 19, 3-(4-(3-((4-(1-(4-((5-bromo-4-((4-(dimethylphosphoryl)quinolin-3-yl)amino)pyrimidin-2-yl)amino)-2-ethyl-5-methoxyphenyl)piperidin-4-yl)piperazin-1-yl)methyl)azetidin-1-yl)-2,6-difluorophenyl)piperidine-2,6-dione] | 4.24 | 97.44 | 8.02 | 89.4 |  |  |  | 
CCc1cc(Nc2ncc(Br)c(Nc3cnc4ccccc4c3P(C)(C)=O)n2)c(OC)cc1N1CCC(N2CCN(C(=O)C3CN(c4cc(F)c(C5CCC(=O)NC5=O)c(F)c4)C3)CC2)CC1 (stereo not shown) [Example 20, 3-(4-(3-(4-(1-(4-((5-bromo-4-((4-(dimethylphosphoryl)quinolin-3-yl)amino)pyrimidin-2-yl)amino)-2-ethyl-5-methoxyphenyl)piperidin-4-yl)piperazine-1-carbonyl)azetidin-1-yl)-2,6-difluorophenyl)piperidine-2,6-dione] | 4.65 | 96.7 | 19.5 | 89.5 |  |  |  | 
CCc1cc(Nc2ncc(Br)c(Nc3cnc4ccccc4c3P(C)(C)=O)n2)c(OC)cc1N1CCC(N2CCN(CCc3cccc4c3n(C)c(=O)n4C3CCC(=O)NC3=O)CC2)CC1 (stereo not shown) [Example 21, 3-(4-(2-(4-(1-(4-((5-bromo-4-((4-(dimethylphosphoryl)quinolin-3-yl)amino)pyrimidin-2-yl)amino)-2-ethyl-5-methoxyphenyl)piperidin-4-yl)piperazin-1-yl)ethyl)-3-methyl-2-oxo-2,3-dihydro-1H-benzo[d]imidazol-1-yl)piperidine-2,6-dione] | 1.11 | 94.17 | 5.02 | 93.3 |  |  |  | 
CCc1cc(Nc2ncc(Br)c(Nc3cnc4ccccc4c3P(C)(C)=O)n2)c(OC)cc1N1CCC(N2CCN(C(=O)C3CC4(CC(Nc5cc(F)c(C6CCC(=O)NC6=O)c(F)c5)C4)C3)CC2)CC1 (stereo not shown) [Example 23, 3-(4-((6-(4-(1-(4-((5-bromo-4-((4-(dimethylphosphoryl)quinolin-3-yl)amino)pyrimidin-2-yl)amino)-2-ethyl-5-methoxyphenyl)piperidin-4-yl)piperazine-1-carbonyl)spiro[3.3]heptan-2-yl)amino)-2,6-difluorophenyl)piperidine-2,6-dione] | 2.22 | 94.5 | 11.1 | 88.6 |  |  |  | 
CCc1cc(Nc2ncc(Br)c(Nc3cnc4ccccc4c3P(C)(C)=O)n2)c(OC)cc1N1CCC(N2CCN(CCc3ccc4c(c3)C3(CC3)C(=O)N4C3CCC(=O)NC3=O)CC2)CC1 (stereo not shown) [Example 24, 3-(5′-(2-(4-(1-(4-((5-bromo-4-((4-(dimethylphosphoryl)quinolin-3-yl)amino)pyrimidin-2-yl)amino)-2-ethyl-5-methoxyphenyl)piperidin-4-yl)piperazin-1-yl)ethyl)-2′-oxospiro[cyclopropane-1,3′-indolin]-1′-yl)piperidine-2,6-dione] | 2.88 | 84.3 | 27.5 | 89.6 |  |  |  | 
CCc1cc(Nc2ncc(Br)c(Nc3cnc4ccccc4c3P(C)(C)=O)n2)c(OC)cc1N1CCC(N2CCN(C(=O)C3CN(c4ccc5c(cnn5C5CCC(=O)NC5=O)c4)C3)CC2)CC1 (stereo not shown) [Example 25, 3-(5-(3-(4-(1-(4-((5-bromo-4-((4-(dimethylphosphoryl)quinolin-3-yl)amino)pyrimidin-2-yl)amino)-2-ethyl-5-methoxyphenyl)piperidin-4-yl)piperazine-1-carbonyl)azetidin-1-yl)-1H-indazol-1-yl)piperidine-2,6-dione] | 1.8 | 88.68 | 6.77 | 85 |  |  |  | 
CCc1cc(Nc2ncc(Br)c(Nc3cnc4cnccc4c3P(C)(C)=O)n2)c(OC)cc1N1CCC(N2CCN(CCc3cc(F)c(C4CCC(=O)NC4=O)c(F)c3)CC2)CC1 (stereo not shown) [Example 28, 3-(4-(2-(4-(1-(4-((5-bromo-4-((4-(dimethylphosphoryl)-1,7-naphthyridin-3-yl)amino)pyrimidin-2-yl)amino)-2-ethyl-5-methoxyphenyl)piperidin-4-yl)piperazin-1-yl)ethyl)-2,6-difluorophenyl)piperidine-2,6-dione] | 5.4 | 90.9 | 8.95 | 81.9 |  |  |  | 
CCOc1cc(N2CCC(N3CCN(CCc4cccc5c4n(C)c(=O)n5C4CCC(=O)NC4=O)CC3)CC2)c(CC)cc1Nc1ncc(Br)c(Nc2cnc3ccc(F)cc3c2P(C)(C)=O)n1 (stereo not shown) [Example 124, 3-(4-(2-(4-(1-(4-((5-bromo-4-((4-(dimethylphosphoryl)-6-fluoroquinolin-3-yl)amino)pyrimidin-2-yl)amino)-5-ethoxy-2-ethylphenyl)piperidin-4-yl)piperazin-1-yl)ethyl)-3-methyl-2-oxo-2,3-dihydro-1H-benzol[d]imidazol-1-yl) piperidine-2,6-dione] |  |  |  |  | 3.4 | 77 | 1.4 | 73

From US20240165243A1, “EGFR DEGRADERS AND METHODS OF USE” (BeiGene Switzerland GmbH, priority 2021, published 2024)
